Laboratory results: US10125119B2, “Series of resveratrol-derivative fluorescently labeled molecules and synthesis method thereof” (Hangzhou Normal University, priority 2017, dated 2018)

melting point: 165 to 166 °C
SMILES: COc1cc(/C=C/c2ccc(Oc3nc(Cl)nc(-n4cc(-c5ccc(C(=C(c6ccccc6)c6ccccc6)c6ccccc6)cc5)nn4)n3)cc2)cc(OC)c1 [Product (I)]
